Earlier results on three molecules are cited in patent publication US7687487B2, “Camptothecin-analog with a novel, “flipped” lactone-stable, E-ring and methods for making and using same” (BioNumerik Pharmaceuticals, Inc., priority 2007, dated 2010).

Molecules are shown by their SMILES. “Also recorded” adds a separate entry of the source. Where two headings read alike, the source gives them in different places.

Test in data set [1]: not given
The source holds these as a separate data set.

Another data set deals with gastrointestinal cancer. The note with it: after 2 months (8 or 9 weeks).
Data set [2] concerns advanced malignant melanoma. The note with it: fifteen patients.
For data set [3] the following is noted: 24 hours after administration, once daily for 5 days, 6.5-20 mg/m^2/day.
The conditions of data set [4]: for Toxicity: et al, * Dose Limiting Toxicity.
The test system of the next data set is tumors by Tumor Type. The note with it: et al.
The conditions of data set [5]: versus lactone form.

Regarding `CC[C@@]1(O)C(=O)OCc2c1cc1n(c2=O)Cc2cc3ccccc3nc2-1` [CPT sodium], where the note is “doses of 20 to 30 mg/m^2”, the bladder toxicity result is given as “dose limiting in three patients”. In addition, the “most prominent non-hematologic toxic effect” value (fifteen patients, 20-67 mg/m^2 weekly, intravenous push) is “Cystitis”. Besides, the “Cystitis (% of 27 Patients)” value in data set [1] (5-Day Course, P < 0.05) is 48 (P < 0.05) %. In addition, the “Cystitis (% of 34 Patients)” value in data set [1] (Single Dose method of administration) was 24%. Further, the persistence of diarrhea in data set [1] (higher doses) is recorded as ≤ 4 weeks. Further, in data set [1] (in vivo), the “onset of cystitis after treatment” value was 7 to 10 days. Further, the “patients with partial objective improvement” value in the data set on gastrointestinal cancer is reported as “only two of their 61 patients”. Moreover, in data set [2] (90-360 mg/m^2 every 2 weeks), the “50% or greater decrease in tumor diameter” value is “None of the patients” and the myelosuppression is reported as 11 patients. Besides, the “less pronounced transient tumor regression” value in data set [2] (no clinical benefit associated) was “three patients”. For the same molecule, the “relation of plasma CPT levels to dose” value in data set [3] is reported as “little relation to the dose given”.

`CCc1c2c(nc3ccc(OC(=O)N4CCC(N5CCCCC5)CC4)cc13)-c1cc3c(c(=O)n1C2)COC(=O)[C@]3(O)CC` [CPT-11, 7-ethyl-10-[4-(1-piperidino)-1-piperidino]carbonyloxy camptothecin]: the Toxicity entry in data set [4] (Clavel, 90 min. QDx 3 Q21 Days, 37 Pts., 115 mg/m^2/d (33-115)) was “neutropenia*; also recorded: diarrhea,; also recorded: vomiting,”. In addition, in data set [4] (Ohe, 120 hr CI Q3 wks, 36 Pts., 40 mg/m^2/d (5-40)), the Toxicity result was “diarrhea*; also recorded: vomiting,; also recorded: thrombocytopenia; also recorded: Anemia; also recorded: liver”. In data set [4] (Phase I clinical trials summarised in Table VII), the “major reported dose-limiting toxicities” value was “Neutropenia and diarrhea”. Also, in the data set on tumors by Tumor Type (Clavel, 37 Pts.), the “Tumor Type: Breast, responses” value is on record as “(1 PR)” and the “Tumor Type: Mesothelioma, responses” value is “(1 PR)”. In the data set on tumors by Tumor Type (Culine, 59 Pts.), the “Tumor Type: Esophagus, responses” value is “(1 PR) cervix”; the “Tumor Type: Ovarian, responses” value is recorded as “(1 PR)”; the “Tumor Type: cervix, responses” value is on record as “(1 PR) renal”; the “Tumor Type: renal, responses” value is “(1 PR)”. In addition, in the data set on tumors by Tumor Type (Negoro, 17 Pts.), the “Tumor Type: NS CLC, responses” value is “(2 PRs)”. Moreover, in the data set on tumors by Tumor Type (Ohe, 36 Pts.), the “Tumor Type with responses” value is listed as “None”. Further, in the data set with tumors by Tumor Type (Rothenberg, 32 Pts.), the “Tumor Type: Colon Ca, responses” value is on record as “(2 PRs)”. Further, in the data set with tumors by Tumor Type (Rowinsky, 32 Pts.), the “Tumor Type: Cervix Ca, responses” value is reported as “(1 PR)” and the “Tumor Type: Colon Cancer, responses” value was “(1 PR)”.

For the molecule `CC[C@@](O)(C(=O)O)c1cc2n(c(=O)c1CO)Cc1cc3ccccc3nc1-2` [carboxylate form of CPT], the “reduction of anti-tumor activity” value in data set [5] is recorded as “at least 10 fold”.
